# Measured values: patent US20230113037A1 (Bayer Aktiengesellschaft, priority 2019, published 2023)
# pIC50: −log10 of the molar value. Where “and” joins values, the source holds several entries; their conditions need not be identical. Equal entries are not always repeated. Where two headings read alike, the source gives them in different places.
# Assays:
# AHR [1] = target: T1, AHR (Mus musculus, UniProt P30561); experiment: In vitro assay 3: antagonism in mouse cell line (AHR transactivation, firefly luciferase reporter, kynurenic acid prestimulated); type: cell-based
# T1 sequence (P30561 1-848 P471L/N533S/M589L): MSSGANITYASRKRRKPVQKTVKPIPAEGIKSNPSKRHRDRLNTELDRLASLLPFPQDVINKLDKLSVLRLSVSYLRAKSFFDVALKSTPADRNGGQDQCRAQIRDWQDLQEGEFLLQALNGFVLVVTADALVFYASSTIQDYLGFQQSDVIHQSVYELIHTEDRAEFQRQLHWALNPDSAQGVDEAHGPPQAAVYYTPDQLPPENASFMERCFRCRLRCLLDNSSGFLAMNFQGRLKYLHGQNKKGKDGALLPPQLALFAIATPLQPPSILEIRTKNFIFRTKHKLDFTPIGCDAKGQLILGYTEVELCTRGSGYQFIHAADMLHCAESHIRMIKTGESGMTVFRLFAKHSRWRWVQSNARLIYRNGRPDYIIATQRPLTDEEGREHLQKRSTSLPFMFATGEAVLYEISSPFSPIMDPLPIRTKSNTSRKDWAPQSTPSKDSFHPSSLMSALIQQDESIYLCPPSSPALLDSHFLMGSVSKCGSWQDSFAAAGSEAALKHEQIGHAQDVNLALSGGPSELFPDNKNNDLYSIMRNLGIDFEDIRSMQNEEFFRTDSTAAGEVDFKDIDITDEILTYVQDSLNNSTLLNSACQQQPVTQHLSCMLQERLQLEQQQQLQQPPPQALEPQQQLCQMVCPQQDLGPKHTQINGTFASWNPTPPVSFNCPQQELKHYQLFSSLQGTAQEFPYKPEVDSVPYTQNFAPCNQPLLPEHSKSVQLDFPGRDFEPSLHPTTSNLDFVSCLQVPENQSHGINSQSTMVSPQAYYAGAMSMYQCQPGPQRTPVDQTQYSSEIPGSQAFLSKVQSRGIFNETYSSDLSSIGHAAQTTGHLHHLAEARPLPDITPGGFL
# How it was run: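 Antagonism read as reduced firefly luciferase signal (SteadyGlo) from a stably transfected AHR/DRE reporter in a mouse line prestimulated with kynurenic acid. Data normalized to controls, the full-inhibition control being cells without kynurenic acid; multiple determinations given as average or median values.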
# AHR [2] = target: T2, AHR (Homo sapiens, UniProt P35869); experiment: In vitro assay 1: antagonism in human cell line (AHR transactivation, firefly luciferase reporter, kynurenic acid prestimulated); type: cell-based; conditions: AHR Antagonism Human IC50 [M]
# T2 construct: U87 MG glioblastoma cells (ATCC #HTB-14) endogenously expressing AHR; endogenous in cells; host or cells: U87 MG glioblastoma cells (ATCC #HTB-14)
# T2 sequence (P35869 11-848): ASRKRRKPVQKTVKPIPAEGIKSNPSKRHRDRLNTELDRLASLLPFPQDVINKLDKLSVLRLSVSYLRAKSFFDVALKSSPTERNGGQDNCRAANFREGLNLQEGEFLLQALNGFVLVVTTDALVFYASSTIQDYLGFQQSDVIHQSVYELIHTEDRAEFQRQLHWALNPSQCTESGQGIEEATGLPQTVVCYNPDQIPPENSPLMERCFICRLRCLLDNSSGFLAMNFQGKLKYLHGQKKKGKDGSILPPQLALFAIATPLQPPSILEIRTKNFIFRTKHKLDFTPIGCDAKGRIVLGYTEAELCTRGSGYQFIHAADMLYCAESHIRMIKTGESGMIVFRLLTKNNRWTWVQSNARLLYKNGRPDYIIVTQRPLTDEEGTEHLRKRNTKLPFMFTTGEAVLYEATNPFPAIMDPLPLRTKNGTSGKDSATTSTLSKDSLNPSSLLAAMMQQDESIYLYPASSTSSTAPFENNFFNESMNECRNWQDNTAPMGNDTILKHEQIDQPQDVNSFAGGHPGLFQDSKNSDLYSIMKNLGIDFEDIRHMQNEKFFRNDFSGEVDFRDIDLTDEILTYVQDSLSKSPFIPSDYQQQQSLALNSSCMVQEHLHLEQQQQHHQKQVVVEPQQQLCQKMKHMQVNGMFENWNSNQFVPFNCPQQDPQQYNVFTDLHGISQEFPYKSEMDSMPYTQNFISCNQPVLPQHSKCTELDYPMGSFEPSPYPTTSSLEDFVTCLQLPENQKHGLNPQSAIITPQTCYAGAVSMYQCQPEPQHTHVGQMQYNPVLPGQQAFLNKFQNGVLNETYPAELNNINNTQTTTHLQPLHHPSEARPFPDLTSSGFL
# How it was run: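 Antagonism is measured against kynurenic acid prestimulation in U87 MG glioblastoma cells carrying stable DRE-luciferase and Renilla reporters. Positive inhibition control: 150 μM kynurenic acid with 5 μM staurosporine. Values are normalized to controls; repeats are averaged or given as medians.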
# [3] = mouse Hepa 1c1c7 cells, 200 μM kynurenic acid, 20 hours, read-out: AHR Antagonism Mouse IC50
# [4] = read-out: AHR Antagonism Mouse IC50, mouse Hepa 1c1c7 cells, 200 μM kynurenic acid, 20 hours
Compound,pIC50 (AHR [1]; [3]),IC50 (AHR [2]),pIC50 (AHR [1]; [4])
"Nc1ccc(-c2nc3c4ccccc4nc(N[C@@H]4CCCCNC4=O)n3n2)cn1 [Example 637, (3R)-3-{[2-(6-aminopyridin-3-yl)[1,2,4]triazolo[1,5-c]quinazolin-5-yl]amino}azepan-2-one]",7.67,1.15e-08 M,–
"O=C1NCCCC[C@H]1Nc1nc2ccccc2c2nc(-c3ccnc(F)c3)nn12 [Example 638, (3R)-3-{[2-(2-fluoropyridin-4-yl)[1,2,4]triazolo[1,5-c]quinazolin-5-yl]amino}azepan-2-one]",7.98,4e-09 M,–
"O=C1NCCCC[C@H]1Nc1nc2ccccc2c2nc(-c3cccnc3F)nn12 [Example 640, (3R)-3-{[2-(2-fluoropyridin-3-yl)[1,2,4]triazolo[1,5-c]quinazolin-5-yl]amino}azepan-2-one]",7.51,2.54e-08 M,–
"Cc1ncc(-c2nc3c4ccccc4nc(N[C@@H]4CCCCNC4=O)n3n2)cc1F [Example 641, (3R)-3-{[2-(5-fluoro-6-methylpyridin-3-yl)[1,2,4]triazolo[1,5-c]quinazolin-5-yl]amino}azepan-2-one]",8.61,6.85e-09 M,–
"O=C1NCCCC[C@H]1Nc1nc2ccccc2c2nc(-c3cncnc3)nn12 [Example 642, (3R)-3-{[2-(pyrimidin-5-yl)[1,2,4]triazolo[1,5-c]quinazolin-5-yl]amino}azepan-2-one]",6.17,3.34e-07 M,–
"O=C1NCCCC[C@H]1Nc1nc2ccccc2c2nc(-c3cccnn3)nn12 [Example 644, (3R)-3-{[2-(pyridazin-3-yl)[1,2,4]triazolo[1,5-c]quinazolin-5-yl]amino}azepan-2-one]",7.21,1.03e-07 M,–
"O=C1NCCCC[C@H]1Nc1nc2ccccc2c2nc(-c3cnsc3)nn12 [Example 645, (3R)-3-{[2-(1,2-thiazol-4-yl)[1,2,4]triazolo[1,5-c]quinazolin-5-yl]amino}azepan-2-one]",8.18,1.66e-08 M,–
"O=C1NCCCC[C@H]1Nc1nc2ccccc2c2nc(-c3cnn(C4CCNCC4)c3)nn12 [Example 646, (3R)-3-({2-[1-(piperidin-4-yl)-1H-pyrazol-4-yl][1,2,4]triazolo[1,5-c]quinazolin-5-yl}amino)azepan-2-one]",< 4.70 and 4.93,2.89e-06 M,–
"COc1ccc(-c2nc3c4c(C5CNC5)cccc4nc(N[C@@H]4CCCCNC4=O)n3n2)cc1 [Example 647, (3R)-3-{[10-(azetidin-3-yl)-2-(4-methoxyphenyl)[1,2,4]triazolo[1,5-c]quinazolin-5-yl]amino}azepan-2-one]",< 4.70 and 4.89,6.34e-06 M,–
"CS(=N)(=O)c1ccccc1-c1nc2c3ccccc3nc(N[C@@H]3CCCCNC3=O)n2n1 (stereo partly drawn) [Example 650, (3R)-3-({2-[2-(S-methylsulfonimidoyl)phenyl][1,2,4]triazolo[1,5-c]quinazolin-5-yl}amino)azepan-2-one]",–,1.1e-07 M,7.17
"COc1ccc(-c2nc3c4ccccc4nc(N[C@H](C)C(=O)NC4CCCCC4)n3n2)cc1 [Example 665, N-cyclohexyl-N2-[2-(4-methoxyphenyl)[1,2,4]triazolo[1,5-c]quinazolin-5-yl]-D-alaninamide]",–,1.87e-08 M,7.95
"COc1ccc(-c2nc3c4cccc(O)c4nc(N[C@@H]4CCCCNC4=O)n3n2)cc1 [Example 669, (3R)-3-{[7-hydroxy-2-(4-methoxyphenyl)[1,2,4]triazolo[1,5-c]quinazolin-5-yl]amino}azepan-2-one]",–,1.99e-09 M,8.30

# Second part, led by results:
pIC50 (AHR [1]; [3]),IC50 (AHR [2]),Compound,pIC50 (AHR [1]; [4])
7.56,3.8e-07 M,"CS(=O)(=O)c1ccccc1-c1nc2c3ccccc3nc(N[C@@H]3CCCCNC3=O)n2n1 [Example 649, (3R)-3-({2-[2-(methanesulfonyl)phenyl][1,2,4]triazolo[1,5-c]quinazolin-5-yl}amino)azepan-2-one]",–
< 4.70,2.58e-07 M,"COc1ccc(-c2nc3c4cccc(C(=O)OC(C)C)c4nc(N[C@@H]4CCCCNC4=O)n3n2)cc1 [Example 653, propan-2-yl 2-(4-methoxyphenyl)-5-{[(3R)-2-oxoazepan-3-yl]amino}[1,2,4]triazolo[1,5-c]quinazoline-7-carboxylate]",–
6.66,1.03e-07 M,"COc1ccc(-c2nc3c4cccc(N5CCOCC5)c4nc(N[C@@H]4CCCCNC4=O)n3n2)cc1 [Example 654, (3R)-3-{[2-(4-methoxyphenyl)-7-(morpholin-4-yl)[1,2,4]triazolo[1,5-c]quinazolin-5-yl]amino}azepan-2-one]",–
6.59,1.39e-07 M,"COc1ccc(-c2nc3c4c(N5CCOCC5)cccc4nc(N[C@@H]4CCCCNC4=O)n3n2)cc1 [Example 655, (3R)-3-{[2-(4-methoxyphenyl)-10-(morpholin-4-yl)[1,2,4]triazolo[1,5-c]quinazolin-5-yl]amino}azepan-2-one]",–
7.09,1.4e-08 M,"CCOC(=O)[C@@H](C)Nc1nc2ccccc2c2nc(-c3ccc(OC)cc3)nn12 [Example 657, ethyl N-[2-(4-methoxyphenyl)[1,2,4]triazolo[1,5-c]quinazolin-5-yl]-D-alaninate]",–
8.34,2.68e-09 M,"CCOc1cccc2c1nc(N[C@@H]1CCCCNC1=O)n1nc(-c3ccc(OC)cc3)nc21 [Example 667, (3R)-3-{[7-ethoxy-2-(4-methoxyphenyl)[1,2,4]triazolo[1,5-c]quinazolin-5-yl]amino}azepan-2-one]",–
6.57,> 5.71e-06 M,"COc1ccc(-c2nc3c4cccc(OCC(C)(F)F)c4nc(N[C@@H]4CCCCNC4=O)n3n2)cc1 [Example 668, (3R)-3-{[7-(2,2-difluoropropoxy)-2-(4-methoxyphenyl)[1,2,4]triazolo[1,5-c]quinazolin-5-yl]amino}azepan-2-one]",–
6.80,2.78e-07 M,"COc1ccc(-c2nc3c4cccc(OCCC(F)(F)F)c4nc(N[C@@H]4CCCCNC4=O)n3n2)cc1 [Example 670, (3R)-3-{[2-(4-methoxyphenyl)-7-(3,3,3-trifluoropropoxy)[1,2,4]triazolo[1,5-c]quinazolin-5-yl]amino}azepan-2-one]",–
8.80,> 2e-05 M,"O=C1NCCCC[C@H]1Nc1nc2c(C(F)(F)F)cccc2c2nc(-c3ccc(Cl)cc3OC(F)F)nn12 [Example 673, (3R)-3-({2-[4-chloro-2-(difluoromethoxy)phenyl]-7-(trifluoromethyl)[1,2,4]triazolo[1,5-c]quinazolin-5-yl}amino)azepan-2-one]",–
9.17,3.44e-10 M,"CCn1cc(-c2nc3c4cccc(C(F)(F)F)c4nc(N[C@@H]4CCCCNC4=O)n3n2)c(C)n1 [Example 674, (3R)-3-{[2-(1-ethyl-3-methyl-1H-pyrazol-4-yl)-7-(trifluoromethyl)[1,2,4]triazolo[1,5-c]quinazolin-5-yl]amino}azepan-2-one]",–
